Laboratory results published in PubChem BioAssay (NCI).
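48-hour exposure; five concentrations; linearly interpolated endpoints. GI50 is the concentration that inhibits growth by half. TGI: total growth inhibition.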

What was measured:
Assay in all cases: growth of human tumour cells (NCI), 48 h
SF-268 CNS = system: SF-268 CNS
CCRF-CEM leukemia = system: CCRF-CEM leukemia
NCI-H23 lung = system: NCI-H23 lung
HCT-15 colon = system: HCT-15 colon
MDA-MB-435 = system: MDA-MB-435
ACHN renal = system: ACHN renal
SK-OV-3 ovarian = system: SK-OV-3 ovarian
SK-MEL-2 melanoma = system: SK-MEL-2 melanoma
SK-MEL-5 melanoma = system: SK-MEL-5 melanoma
SF-539 CNS = system: SF-539 CNS

SMILES	TGI (SF-268 CNS) [µM]	TGI (CCRF-CEM leukemia) [µM]	TGI (NCI-H23 lung) [µM]	TGI (HCT-15 colon) [µM]	TGI (MDA-MB-435) [µM]	TGI (ACHN renal) [µM]	TGI (SK-OV-3 ovarian) [µM]	TGI (SK-MEL-2 melanoma) [µM]	TGI (SK-MEL-5 melanoma) [µM]	TGI (SF-539 CNS) [µM]	GI50 (MDA-MB-435) [µM]	GI50 (SF-539 CNS) [µM]	GI50 (SF-268 CNS) [µM]	GI50 (CCRF-CEM leukemia) [µM]	GI50 (NCI-H23 lung) [µM]	GI50 (HCT-15 colon) [µM]	GI50 (ACHN renal) [µM]	GI50 (SK-OV-3 ovarian) [µM]	GI50 (SK-MEL-2 melanoma) [µM]	GI50 (SK-MEL-5 melanoma) [µM]
COC(=O)c1sc2c(c1C(=O)OC)C(=Nc1ccc(OC)cc1)SC2=Nc1ccc(OC)cc1	3.61	0.289	3.12	1.66	1.94	2.51	3.37	1.48	2.54	0.889										
N#CC1=C(N)OC2=C(CCCc3ccc([N+](=O)[O-])cc32)C1c1ccc(Cl)cc1 (configuration not stated)	> 100	> 100	47.7	> 100	65.5	46.5	> 100	54.7	15.7	29.5										
COC(=O)C(=O)C(C(=O)C(=O)Nc1cc(C)ccc1C)c1nc2ccccc2[nH]c1=O (configuration not stated)	> 100	> 100	> 100	> 100	> 100	> 100	> 100	> 100	> 100	> 100										
CCOC(=O)c1cccc(N=NNc2cccc(C(=O)OCC)c2)c1	80.8	> 100	> 100	> 100	> 100	> 100	93.4	> 100	> 100	36.6										
CNC(=O)OC1/C(C)=C\C(C)C(O)C(OC)CC(C)CC2=C(OC)C(=O)C=C(C2=O)N(C)C(=O)/C(C)=C/C=C\C1OC (configuration not stated)	26.1	4.08	15	17.5	> 100	20.9	30	21.9	21.5	23.3	> 100	< 0.1								
CC(C)=CC(=O)c1[nH]c2ccccc2c1CC(=O)NCCc1cnc[nH]1	> 100	> 100	> 100	> 100	> 100	> 100	> 100	> 100	> 100	> 100										
COc1cccc(C2c3cc4c(cc3OC(NNS(=O)(=O)c3ccc(C)cc3)C2C)OCO4)c1O (configuration not stated)	> 100	43.6	> 100	> 100	92.4	> 100	> 100	53	42	51.8										
O=C1N[C@@H]([C@H]2CC[C@H](Cl)CN2)C(=O)N[C@H]1[C@H]1CC[C@H](Cl)CN1	51.5	33.4	8.76	57.5	32	1.5	2.31	7.95	5.53	4.27										
Cc1ccc2c(c1)CC1(Cc3cc(C)ccc3C1=O)C2=O	> 100	> 100	> 100	> 100	> 100	> 100	> 100	> 100	> 100	> 100										
CCOc1c2c(cc3c1C(=O)c1c(OC)cccc1C3=O)C=C(OC)CC2	> 25	> 25	> 25	> 25	> 25	> 25	> 25	> 25	> 25	> 25										
O=[N+]([O-])C(/C=C(\Cl)[N+](=O)[O-])=C(N1CCOCC1)N1CCOCC1	> 100	> 100	> 100	> 100	> 100	> 100	> 100	> 100	> 100	39.9										
CCn1c(=O)c2nc(SC)sc2n(-c2ccccc2)c1=S	> 100	> 100	> 100	> 100	> 100	> 100	> 100	> 100	> 100	> 100										
CCc1nnc2sc(-c3ccc(-c4ccccc4[N+](=O)[O-])o3)nn12	> 100	> 100	> 100	> 100	49.8	> 100	> 100	95.7	65.9	89										
O=C(c1ccccc1)c1nn(-c2cccc(Cl)c2)c2nc3nc(-c4ccccc4)cc(=O)n3nc12	> 25	> 25	> 25	> 25	> 25	> 25	> 25	> 25	> 25	> 25	> 25	> 25	> 25	> 25	> 25	> 25	> 25	> 25	> 25	> 25
COc1ccc(/C=N/n2c(-c3ccccc3)n[nH]c2=O)c(OC)c1	71.9	> 100	> 100	> 100	> 100	> 75.5	> 74.6	> 100	> 100	> 84.9										
C/C(=C\COP(=O)(O)OP(=O)(O)O)CC/C=C(\C)CNc1c(F)c(F)c(F)c(F)c1F	> 100	1.26	> 100	> 100	> 100	> 100	> 100	> 100	> 100	> 100										
Cc1nc2nnc(CCCCCCCCc3nnc4nc(C)[nH]n34)n2[nH]1	> 100	> 100	> 100	> 100	> 100	> 100	> 100	> 100	> 100	> 100										

SMILES	TGI (SF-268 CNS) [µM]	TGI (CCRF-CEM leukemia) [µM]	TGI (NCI-H23 lung) [µM]	TGI (HCT-15 colon) [µM]	TGI (MDA-MB-435) [µM]	TGI (ACHN renal) [µM]	TGI (SK-OV-3 ovarian) [µM]	TGI (SK-MEL-2 melanoma) [µM]	TGI (SK-MEL-5 melanoma) [µM]	TGI (SF-539 CNS) [µM]	GI50 (MDA-MB-435) [µM]	GI50 (SF-539 CNS) [µM]	GI50 (SF-268 CNS) [µM]	GI50 (CCRF-CEM leukemia) [µM]	GI50 (NCI-H23 lung) [µM]	GI50 (HCT-15 colon) [µM]	GI50 (ACHN renal) [µM]	GI50 (SK-OV-3 ovarian) [µM]	GI50 (SK-MEL-2 melanoma) [µM]	GI50 (SK-MEL-5 melanoma) [µM]
Cc1csc(NCc2ccc(Cl)cc2)n1	> 100	> 100	> 100	> 100	> 100	> 100	> 100	> 100	59.4	> 100										
C#C[C@]1(O)CC[C@H]2[C@@H]3CCC4=C/C(=N/OC(=O)c5cccc6cc7ccccc7nc56)CC[C@@H]4[C@H]3CC[C@@]21CC	> 100	> 100	> 100	> 100	> 100	> 100	> 100	> 100	> 100	> 100										
CC(=O)CC(O)(C(F)(F)Cl)C(F)(Cl)Cl (configuration not stated)	> 10	> 10	> 10	> 10	> 10	> 10	> 10	> 10	> 10	> 10										
O=[N+]([O-])c1ccc(CSC2=C(c3ccc(Cl)cc3)S/C(=C3\SC(SCc4ccc([N+](=O)[O-])cc4)=C(c4ccc(Cl)cc4)S3)S2)cc1	> 100	> 100	> 100	> 100	> 100	> 100	> 100	> 100	> 100	> 100										
COc1ccc2cc(CNCCCCCCNC(=O)Nc3cccc4ccccc34)ccc2c1	> 100	> 100	> 100	> 100	> 100	> 100	> 100	> 100	> 100	> 100										
C(/C=C(\Nc1ccccc1)c1ccc2ccccc2c1)=Nc1ccccc1	29.5	2.85	6.63	5.61	1.27	11.5	11.5	30.9	13.8	4.1										
Cc1c(CCCl)c(Cl)n2c(nc3ccccc32)c1C#N	11.5	3.36	2.37	1.98	2.22	2.14	> 56.4	2.78	2.35	2.81										
O=C(OC1C#CCSCC#C/C=C\1)c1ccc2c(c1)C(=O)c1ccccc1C2=O (configuration not stated)	69.1	> 100	> 100	> 100	> 100	> 100	70.6	> 100	> 100	40.7										
NC1=Nc2ncccc2C(=O)NN1	> 10	> 10	> 10	> 10	> 10	> 10	> 10	> 10	> 10	> 10										
CCOC(=O)/C(C(=O)c1ccc[nH]1)=C1/CCCN1C	> 100	> 100	> 100	> 100	> 100	> 100	> 100	> 100	> 100	> 100										
O=C(Cn1c(=O)oc2ccccc21)N(c1ccccc1)c1ccccc1	> 100	> 100	> 100	> 100	> 100	> 100	> 100	> 100	> 100	> 100										
CCC(CCCC[C@H]1CC[C@@H]2CC(=O)C[C@H]12)OC (some centres not stated)	> 100	> 100	> 100	> 100	> 100	> 100	> 100	> 100	> 100	> 100										
Cc1[nH]c2c(C)c3c([nH]c4ccc(Cl)cc43)c(C)c2c(=O)c1C	> 100	18.1	18.9	5.72	> 53.5	11.6	> 73.8	> 100	42.2	36										
Cc1n[nH]c(=O)c2c3c([nH]c12)-c1ccccc1C3	> 100	> 100	> 100	> 100	> 100	> 100	> 100	> 100	> 100	> 100										
C1CCC(CC2CCC(NC3=NCCO3)CC2)CC1 (configuration not stated)	62.1	61.9	36.5	30.1	32.3	35.5	38.4	32.4	33.7	31.1										
O=C1OCOC2(CCCC2)C1c1ccccc1 (configuration not stated)	> 100	> 100	> 100	> 100	> 100	> 100	> 100	> 100	> 100	> 100										
